The source of these data is patent publication US8071531B2, “Flavor and fragrance composition” (Takasgo International Corporation, priority 2006, dated 2011).

The assay can be described thus: Oral sensory evaluation of an aqueous solution by seven expert panelists. Format: in vivo. As to the method: Oral evaluation of an aqueous solution of (1R,2R,4R)-1-(2-hydroxy-4-methylcyclohexyl)ethanone obtained in Synthesis Example 1 was carried out by seven expert panelists.

Consider `CC(=O)[C@@H]1CC[C@@H](C)C[C@H]1O` [(1R,2R,4R)-1-(2-hydroxy-4-methylcyclohexyl)ethanone], for which the “appearance of refreshing feeling and taste” value (aqueous solution, oral evaluation) is “relatively rapid with clear refreshing feeling without unpleasant taste”. Moreover, the “Cool and refreshing feeling of the aqueous solution, equivalent concentration of menthol” value (at a concentration of 50 ppm in aqueous solution) was found to be 10 ppm.
